PMC3685217, “Activation of IP3 receptors requires an endogenous 1-8-14 calmodulin-binding motif” (Biochemical Journal, 2012)

How the values were obtained:
[1] = target: T1, NT (residues 1–604) of rat IP3R1 (Rattus norvegicus, UniProt P29994, DEL318-332); assay: [3H]IP3 equilibrium-competition binding to NT; settings: 100 μM peptide, [3H]IP3 1.5 nM
T1 construct: The NT (residues 1–604) and IBC (residues 224–604) of rat IP3R1; His6 (N, cleaved yes); made in house; host or cells: Escherichia coli BL21(DE3)
T1 sequence (P29994 1-589 isoform P29994-2 limits assumed, stated change not applied): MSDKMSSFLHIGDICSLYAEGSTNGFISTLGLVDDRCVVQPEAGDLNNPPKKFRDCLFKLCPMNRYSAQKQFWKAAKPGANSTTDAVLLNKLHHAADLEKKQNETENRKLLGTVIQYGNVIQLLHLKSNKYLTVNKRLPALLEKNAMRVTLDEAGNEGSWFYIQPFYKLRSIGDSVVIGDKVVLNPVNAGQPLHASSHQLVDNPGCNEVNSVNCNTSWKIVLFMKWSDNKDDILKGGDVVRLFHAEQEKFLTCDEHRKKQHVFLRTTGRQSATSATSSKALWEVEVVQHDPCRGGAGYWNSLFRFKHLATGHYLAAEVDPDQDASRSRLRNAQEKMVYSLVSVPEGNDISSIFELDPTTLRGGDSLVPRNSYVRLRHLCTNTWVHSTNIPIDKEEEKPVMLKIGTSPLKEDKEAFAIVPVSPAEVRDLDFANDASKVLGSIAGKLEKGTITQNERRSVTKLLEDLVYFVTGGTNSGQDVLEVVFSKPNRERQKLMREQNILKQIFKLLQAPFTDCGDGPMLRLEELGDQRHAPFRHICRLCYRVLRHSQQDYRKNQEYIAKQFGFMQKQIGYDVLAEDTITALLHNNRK
Excerpt: (§1) The NT (residues 1–604) and IBC (residues 224–604) of rat IP3R1 were amplified by PCR from the full-length receptor clone lacking the SI splice region (GenBank® accession number GQ233032.1) as described previously. The fragments were ligated into pTrcHis A (Invitrogen) to allow expression of N-terminally His6-tagged proteins. Mutagenesis of the 1-8-14 motif within the NT used the QuikChange® II XL site-directed mutagenesis kit (Stratagene) for single mutants (F53E, L60E, Y66E and K52E) and the QuikChange® multi-site-directed mutagenesis kit for the double mutant (F53E and Y66E). The primers used are listed in Supplementary Table S2 (at http://www.BiochemJ.org/bj/449/bj4490039add.htm). The same primers and conditions were used for mutagenesis of full-length IP3R using IP3R1 in the pENTR 1A vector. Full-length constructs were subcloned into pcDNA3.2/V5-DEST for expression in DT40 cells. The complete sequence of every mutant construct was verified by sequencing.
(§2) The pTrcHis constructs were used for expression of N-terminally His6-tagged proteins in Escherichia coli strain BL21(DE3) cells. Before use for [^3H]IP3 binding, proteins were cleaved from the His6 tags using biotinylated thrombin (Novagen) at the engineered thrombin-cleavage site. Complete cleavage was verified by Western blotting using an anti-His6 antibody. The proteins were used for [^3H]IP3 binding without further purification.
(§3) Equilibrium-competition binding assays were performed at 4°C for 5 min in CLM (500 μl) with a free Ca^2+ concentration of 220 nM and containing [^3H]IP3 (0.75–1.5 nM), bacterial lysate (10 μg of protein for IBC and 100 μg of protein for NT) or cerebellar membranes (50 μg of protein) and competing ligands. Non-specific binding was defined by addition of 10 μM IP3. Bound and free [^3H]IP3 were separated by centrifugation at 20000 g for 5 min, after addition of poly(ethylene glycol) (15% final concentration) and γ-globulin (0.75 mg) for soluble proteins. Results were analysed by fitting to a Hill equation (using GraphPad Prism) from which the IC50 (half-maximal inhibitory concentration) and thereby the Kd (equilibrium dissociation constant) were calculated.

[2] = target: T2, NT of rat IP3R1 with F53E mutation (Rattus norvegicus, UniProt P29994, DEL318-332/F53E); assay: [3H]IP3 equilibrium-competition binding to NT F53E; settings: 100 μM peptide, [3H]IP3 1.5 nM
T2 construct: The NT (residues 1–604) and IBC (residues 224–604) of rat IP3R1; His6 (N, cleaved yes); made in house; host or cells: Escherichia coli BL21(DE3)
T2 sequence (P29994 1-589 isoform P29994-2 F53E limits assumed): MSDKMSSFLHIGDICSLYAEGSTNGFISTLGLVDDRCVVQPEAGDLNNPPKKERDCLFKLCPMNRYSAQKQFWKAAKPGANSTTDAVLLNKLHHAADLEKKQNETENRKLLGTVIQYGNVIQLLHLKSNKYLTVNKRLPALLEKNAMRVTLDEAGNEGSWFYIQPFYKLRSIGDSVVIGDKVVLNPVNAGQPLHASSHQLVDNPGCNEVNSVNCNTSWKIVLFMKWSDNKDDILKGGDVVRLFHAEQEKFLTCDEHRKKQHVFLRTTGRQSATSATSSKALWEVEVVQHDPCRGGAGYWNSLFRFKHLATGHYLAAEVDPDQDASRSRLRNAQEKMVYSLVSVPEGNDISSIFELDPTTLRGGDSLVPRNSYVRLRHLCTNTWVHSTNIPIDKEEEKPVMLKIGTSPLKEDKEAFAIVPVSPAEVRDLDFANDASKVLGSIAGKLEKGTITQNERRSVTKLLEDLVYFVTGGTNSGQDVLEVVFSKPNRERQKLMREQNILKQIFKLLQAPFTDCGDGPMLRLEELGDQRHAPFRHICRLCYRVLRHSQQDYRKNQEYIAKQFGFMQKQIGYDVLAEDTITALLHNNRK
Excerpt: as §1, §2, §3

[3] = target: T3, NT of rat IP3R1 with Y66E mutation (Rattus norvegicus, UniProt P29994, DEL318-332/Y66E); assay: [3H]IP3 equilibrium-competition binding to NT Y66E; settings: 100 μM peptide, [3H]IP3 1.5 nM
T3 construct: The NT (residues 1–604) and IBC (residues 224–604) of rat IP3R1; His6 (N, cleaved yes); made in house; host or cells: Escherichia coli BL21(DE3)
T3 sequence (P29994 1-589 isoform P29994-2 Y66E limits assumed): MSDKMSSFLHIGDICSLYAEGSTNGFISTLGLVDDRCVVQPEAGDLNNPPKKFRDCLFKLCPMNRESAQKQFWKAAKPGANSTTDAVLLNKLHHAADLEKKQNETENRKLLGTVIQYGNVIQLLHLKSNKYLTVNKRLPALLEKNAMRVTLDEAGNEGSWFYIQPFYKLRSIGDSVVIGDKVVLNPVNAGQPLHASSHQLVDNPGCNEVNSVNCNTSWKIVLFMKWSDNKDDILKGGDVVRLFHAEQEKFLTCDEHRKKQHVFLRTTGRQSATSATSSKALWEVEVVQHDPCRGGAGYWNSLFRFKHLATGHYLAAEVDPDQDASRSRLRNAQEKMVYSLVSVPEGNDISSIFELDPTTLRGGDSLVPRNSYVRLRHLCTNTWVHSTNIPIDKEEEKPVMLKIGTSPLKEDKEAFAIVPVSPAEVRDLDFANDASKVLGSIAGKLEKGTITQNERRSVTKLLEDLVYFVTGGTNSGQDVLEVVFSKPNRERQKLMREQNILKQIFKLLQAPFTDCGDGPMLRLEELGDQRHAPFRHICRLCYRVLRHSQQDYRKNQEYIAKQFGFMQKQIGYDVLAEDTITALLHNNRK
Excerpt: as §1, §2, §3

[4] = target: T4, NT of rat IP3R1 with L60E mutation (Rattus norvegicus, UniProt P29994, DEL318-332/L60E); assay: [3H]IP3 equilibrium-competition binding to NT L60E; settings: 100 μM peptide, [3H]IP3 1.5 nM
T4 construct: The NT (residues 1–604) and IBC (residues 224–604) of rat IP3R1; His6 (N, cleaved yes); made in house; host or cells: Escherichia coli BL21(DE3)
T4 sequence (P29994 1-589 isoform P29994-2 L60E limits assumed): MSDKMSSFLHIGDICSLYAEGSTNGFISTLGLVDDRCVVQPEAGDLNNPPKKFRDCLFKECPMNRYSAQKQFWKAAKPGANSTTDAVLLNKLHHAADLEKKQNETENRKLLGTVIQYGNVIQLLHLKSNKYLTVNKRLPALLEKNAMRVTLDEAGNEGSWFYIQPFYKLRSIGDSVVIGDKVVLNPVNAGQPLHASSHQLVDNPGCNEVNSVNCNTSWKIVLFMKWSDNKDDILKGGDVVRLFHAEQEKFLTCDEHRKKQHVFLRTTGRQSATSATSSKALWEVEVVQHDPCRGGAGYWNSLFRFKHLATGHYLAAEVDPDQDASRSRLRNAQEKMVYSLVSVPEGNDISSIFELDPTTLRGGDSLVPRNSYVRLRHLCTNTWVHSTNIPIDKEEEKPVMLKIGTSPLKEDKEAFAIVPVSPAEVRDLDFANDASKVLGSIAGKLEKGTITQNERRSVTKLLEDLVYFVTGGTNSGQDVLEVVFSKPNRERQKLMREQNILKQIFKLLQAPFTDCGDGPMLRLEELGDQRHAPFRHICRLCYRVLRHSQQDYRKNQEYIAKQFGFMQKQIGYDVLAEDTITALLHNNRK
Excerpt: as §1, §2, §3

[5] = target: T5, full-length IP3R (wild-type IP3R1) (Rattus norvegicus, UniProt P29994); assay: [3H]IP3 binding to full-length IP3R in permeabilized DT40 cells; settings: 100 μM peptide, [3H]IP3 1.5 nM, not increased for L60E or FY mutants
T5 construct: expressed in transfected cells; host or cells: DT40 cells (chicken B cells, all endogenous IP3R genes disrupted) stably expressing rat IP3R1
T5 sequence (P29994 1-2735 isoform P29994-2): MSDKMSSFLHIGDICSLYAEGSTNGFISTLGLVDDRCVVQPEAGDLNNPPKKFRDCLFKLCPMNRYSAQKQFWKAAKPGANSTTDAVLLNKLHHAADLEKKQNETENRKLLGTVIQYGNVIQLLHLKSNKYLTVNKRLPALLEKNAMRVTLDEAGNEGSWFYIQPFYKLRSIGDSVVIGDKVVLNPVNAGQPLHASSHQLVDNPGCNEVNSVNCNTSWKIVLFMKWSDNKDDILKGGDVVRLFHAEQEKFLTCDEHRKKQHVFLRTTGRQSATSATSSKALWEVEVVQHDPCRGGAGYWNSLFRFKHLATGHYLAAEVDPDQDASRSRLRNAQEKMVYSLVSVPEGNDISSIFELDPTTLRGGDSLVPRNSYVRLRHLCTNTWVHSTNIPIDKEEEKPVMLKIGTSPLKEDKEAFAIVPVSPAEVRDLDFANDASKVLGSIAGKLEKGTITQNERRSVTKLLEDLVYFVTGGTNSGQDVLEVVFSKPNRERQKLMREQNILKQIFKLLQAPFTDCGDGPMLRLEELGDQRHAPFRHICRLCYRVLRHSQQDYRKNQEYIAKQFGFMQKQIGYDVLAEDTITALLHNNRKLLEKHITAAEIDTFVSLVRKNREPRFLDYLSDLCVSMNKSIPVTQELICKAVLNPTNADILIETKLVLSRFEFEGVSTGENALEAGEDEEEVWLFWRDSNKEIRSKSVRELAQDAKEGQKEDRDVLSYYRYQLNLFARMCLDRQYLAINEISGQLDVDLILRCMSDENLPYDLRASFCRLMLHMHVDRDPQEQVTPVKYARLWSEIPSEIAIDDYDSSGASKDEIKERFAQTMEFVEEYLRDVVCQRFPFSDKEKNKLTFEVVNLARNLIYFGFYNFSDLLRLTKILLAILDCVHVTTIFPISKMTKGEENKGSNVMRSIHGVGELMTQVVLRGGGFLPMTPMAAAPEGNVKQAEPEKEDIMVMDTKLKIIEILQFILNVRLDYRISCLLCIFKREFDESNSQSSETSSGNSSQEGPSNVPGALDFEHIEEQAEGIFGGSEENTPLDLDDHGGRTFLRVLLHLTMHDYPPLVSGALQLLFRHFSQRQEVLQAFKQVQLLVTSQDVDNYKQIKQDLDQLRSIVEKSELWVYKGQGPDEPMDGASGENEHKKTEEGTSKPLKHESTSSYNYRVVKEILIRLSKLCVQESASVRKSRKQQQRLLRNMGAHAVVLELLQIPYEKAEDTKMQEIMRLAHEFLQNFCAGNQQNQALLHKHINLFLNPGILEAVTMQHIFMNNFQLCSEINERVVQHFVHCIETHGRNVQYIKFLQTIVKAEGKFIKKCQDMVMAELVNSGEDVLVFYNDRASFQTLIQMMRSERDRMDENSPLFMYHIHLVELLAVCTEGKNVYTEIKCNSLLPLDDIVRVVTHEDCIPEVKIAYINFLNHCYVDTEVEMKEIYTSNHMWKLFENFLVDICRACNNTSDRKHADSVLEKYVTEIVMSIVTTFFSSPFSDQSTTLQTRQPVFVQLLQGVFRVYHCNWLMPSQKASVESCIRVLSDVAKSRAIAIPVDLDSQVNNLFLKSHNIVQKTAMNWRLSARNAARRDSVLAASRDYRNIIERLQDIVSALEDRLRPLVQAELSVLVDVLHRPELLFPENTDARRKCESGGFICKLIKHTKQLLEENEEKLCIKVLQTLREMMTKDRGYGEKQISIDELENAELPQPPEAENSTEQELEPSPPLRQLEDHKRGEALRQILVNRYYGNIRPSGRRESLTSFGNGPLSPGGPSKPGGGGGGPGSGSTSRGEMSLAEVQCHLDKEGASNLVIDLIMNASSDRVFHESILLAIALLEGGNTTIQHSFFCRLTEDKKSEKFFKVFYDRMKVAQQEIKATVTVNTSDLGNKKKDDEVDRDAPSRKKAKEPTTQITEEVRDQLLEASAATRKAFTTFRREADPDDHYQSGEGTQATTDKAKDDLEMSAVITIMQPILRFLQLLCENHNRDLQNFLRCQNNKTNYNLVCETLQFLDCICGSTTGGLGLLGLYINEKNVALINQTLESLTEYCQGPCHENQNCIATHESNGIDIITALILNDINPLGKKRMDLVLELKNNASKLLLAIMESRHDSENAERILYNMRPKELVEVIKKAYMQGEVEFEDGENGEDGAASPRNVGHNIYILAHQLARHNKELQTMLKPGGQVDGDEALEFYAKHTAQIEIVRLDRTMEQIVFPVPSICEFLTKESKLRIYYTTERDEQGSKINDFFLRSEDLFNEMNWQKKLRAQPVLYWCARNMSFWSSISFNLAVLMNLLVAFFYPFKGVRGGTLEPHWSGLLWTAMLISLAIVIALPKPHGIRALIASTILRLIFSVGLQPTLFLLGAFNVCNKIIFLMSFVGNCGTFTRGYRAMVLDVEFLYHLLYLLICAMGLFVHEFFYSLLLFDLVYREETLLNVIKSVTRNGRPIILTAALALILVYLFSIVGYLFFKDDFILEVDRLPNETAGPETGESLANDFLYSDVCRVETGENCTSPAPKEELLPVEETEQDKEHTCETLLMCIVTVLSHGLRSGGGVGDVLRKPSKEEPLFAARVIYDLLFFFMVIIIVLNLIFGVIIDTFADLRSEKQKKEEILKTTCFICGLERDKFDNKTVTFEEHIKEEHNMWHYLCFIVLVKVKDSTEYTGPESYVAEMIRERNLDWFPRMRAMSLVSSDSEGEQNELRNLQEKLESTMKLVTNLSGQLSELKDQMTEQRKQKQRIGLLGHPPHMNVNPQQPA

For `CC[C@H](C)[C@H](NC(=O)[C@H](C)NC(=O)[C@H](CCCNC(=N)N)NC(=O)[C@@H](NC(=O)[C@H](C)NC(=O)[C@H](Cc1c[nH]cn1)NC(=O)CNC(=O)[C@@H](NC(=O)[C@H](CCCCN)NC(=O)[C@H](CCC(N)=O)NC(=O)[C@H](Cc1c[nH]c2ccccc12)NC(=O)[C@H](CCCCN)NC(=O)[C@H](CCCNC(=N)N)NC(=O)[C@H](CCCNC(=N)N)NC(C)=O)[C@@H](C)O)C(C)C)C(=O)NCC(=O)N[C@@H](CCCNC(=N)N)C(=O)N[C@@H](CC(C)C)C(N)=O` [MLCK peptide, Ac-RRKWQKTGHAVRAIGRL-NH2], the “effect on specific [3H]IP3 binding to the NT” value [1] was “increased”, the “effect on specific [3H]IP3 binding to NT F53E” value [2] was “neither peptide had any effect” and the “effect on specific [3H]IP3 binding to NT Y66E” value [3] was “neither peptide had any effect”. The “effect on specific [3H]IP3 binding to NT L60E” value [4] was “neither peptide had any effect” and the “effect on IP3 binding to full-length wild-type IP3R” value [5] was “increased”.
